Laboratory results reported in PubChem BioAssay (NCI).
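96-well plates; 48 h exposure; 5 concentrations. Endpoints by linear interpolation between flanking doses. Not reached: highest tested concentration assigned. GI50: concentration for 50% inhibition of growth. At the TGI there is no net growth.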

Tests used:
Assay in all cases: DTP human tumour cell line panel, 48 h
NCI/ADR-RES ovarian = test system: NCI/ADR-RES ovarian
T-47D breast = test system: T-47D breast
HCC-2998 colon = test system: HCC-2998 colon
SN12C renal = test system: SN12C renal
COLO 205 colon = test system: COLO 205 colon
SF-295 CNS = test system: SF-295 CNS
MDA-MB-231 breast = test system: MDA-MB-231 breast
HCT-15 colon = test system: HCT-15 colon
SK-OV-3 ovarian = test system: SK-OV-3 ovarian
K-562 leukemia = test system: K-562 leukemia

| Compound | GI50 (NCI/ADR-RES ovarian) [µM] | TGI (NCI/ADR-RES ovarian) [µM] | GI50 (T-47D breast) [µM] | TGI (T-47D breast) [µM] | GI50 (HCC-2998 colon) [µM] | TGI (HCC-2998 colon) [µM] | GI50 (SN12C renal) [µM] | TGI (SN12C renal) [µM] | GI50 (COLO 205 colon) [µM] | TGI (COLO 205 colon) [µM] | GI50 (SF-295 CNS) [µM] | TGI (SF-295 CNS) [µM] | GI50 (MDA-MB-231 breast) [µM] | TGI (MDA-MB-231 breast) [µM] | GI50 (HCT-15 colon) [µM] | TGI (HCT-15 colon) [µM] | GI50 (SK-OV-3 ovarian) [µM] | TGI (SK-OV-3 ovarian) [µM] | GI50 (K-562 leukemia) [µM] | TGI (K-562 leukemia) [µM] |
| --- | --- | --- | --- | --- | --- | --- | --- | --- | --- | --- | --- | --- | --- | --- | --- | --- | --- | --- | --- | --- |
| Fc1ccc(-c2ncn(C3CCNCC3)c2-c2ccnc(Oc3ccccc3)n2)cc1 | > 25 | > 25 | 17.3 | > 25 | 12.8 | > 25 | 18.5 | > 25 | 7.32 | 18.6 | 18.2 | > 25 | 13.4 | > 25 | > 22.8 | > 25 | 20.1 | > 25 | 10.8 | > 25 |
| C[C@]12CCC3[C@@H](C[C@H]4OC(=O)[C@@]35CCC(=O)C=C45)C1CCC2=O (stereo not given in full) | – | – | – | – | – | > 100 | – | > 100 | – | > 100 | – | > 100 | – | – | – | > 100 | – | > 100 | – | > 100 |
| CN(C)c1ccc(/C=C/C(=O)c2ccccc2)cc1Br | – | – | – | – | – | 37.5 | – | 45.2 | – | 34.5 | – | 45.7 | – | – | – | 54.7 | – | > 100 | – | 75.7 |
| COC(=O)CSc1ccccc1 | – | – | – | – | – | > 100 | – | > 100 | – | > 100 | – | > 100 | – | – | – | > 100 | – | > 100 | – | > 100 |
| C/C(=N\Nc1ccc2ccccc2n1)c1ccccc1O | – | > 100 | – | > 100 | – | – | – | > 100 | – | > 100 | – | 37.2 | – | > 100 | – | > 100 | – | > 57.6 | – | > 100 |
| COc1ccc(CN2C(=O)C(Cc3cc(OC)c(OC)c(C)c3OC)N(C(=O)OC(C)C)C(=O)/C2=C/c2cc(OC)c(OC)c(C)c2OC)cc1 (stereo not given) | – | – | – | – | – | > 100 | – | > 100 | – | > 100 | – | > 100 | – | – | – | – | – | > 100 | – | > 100 |
| O=c1cc2n(c(=O)[nH]1)C1OC(C(O)C1O)[C@H]2CCO (stereo not given in full) | – | – | – | – | – | – | – | > 100 | – | > 100 | – | > 100 | – | – | – | – | – | > 100 | – | > 100 |
| O=C1OC(c2ccccc2)C2CC3CC4(CCC3CN12)OCCO4 (stereo not given) | – | – | – | – | – | – | – | > 100 | – | > 100 | – | > 100 | – | – | – | > 100 | – | > 100 | – | > 100 |
| COc1ccc(C(=O)C(c2ccc(OC)cc2)C2C(=O)Oc3ccccc32)cc1 (stereo not given) | – | – | – | – | > 100 | > 100 | > 100 | > 100 | > 100 | > 100 | > 100 | > 100 | – | – | > 100 | > 100 | > 100 | > 100 | > 100 | > 100 |
| Cc1cc(C)nc(NS(=O)(=O)c2ccc(NC(=O)c3cccc4c(Nc5ccc(S(=O)(=O)Nc6nc(C)cc(C)n6)cc5)c5ccccc5nc34)cc2)n1 | – | – | – | – | – | – | – | 41.1 | – | 45.4 | – | 51.5 | – | – | – | 49 | – | 57.2 | – | 61.2 |
| COc1ccc(-c2cc(-c3ccc(O)cc3)nc3nc(=S)[nH]c(N)c23)cc1 | 26.1 | 66.3 | 14.3 | 80.1 | 16.2 | 31.9 | 18.5 | 45.1 | 17 | 50.1 | 20 | 61.6 | 16.1 | 57.8 | 19.6 | 58 | – | – | 16.9 | > 100 |
| O=C(c1ccccc1)c1ccc(Cl)c([N+](=O)[O-])c1 | 21.3 | 58.3 | 7.54 | 38.6 | – | – | 3.81 | 14.8 | 5.01 | 19.9 | 17.8 | 34.5 | 3.61 | 11.7 | 2.95 | 9.86 | 15.8 | 29.9 | 3.44 | 11.9 |
| COC(=O)NNc1c([N+](=O)[O-])cnn(-c2ccccc2)c1=O | – | – | – | 4.54 | – | 9.72 | – | 3.49 | – | 6.02 | – | 8.37 | – | – | – | 5.58 | – | 17 | – | – |
| O=C(Nc1ccc(Cl)c(Cl)c1)C(=O)Nn1c(=S)[nH]c2ccccc2c1=O | – | – | – | – | – | > 100 | – | > 100 | – | > 100 | – | > 100 | – | – | – | > 100 | – | > 100 | – | > 100 |
| O=C1CSC(=S)N1c1ccc(F)cc1F | – | > 100 | – | > 100 | – | > 100 | – | > 100 | – | > 100 | – | > 100 | – | > 100 | – | > 100 | – | > 100 | – | – |
| CCOC(=O)NC(=O)c1cn(CCCCCOC(=O)NCCCCCCNC(=O)OCCCCCn2cc(C(=O)NC(=O)OCC)c(=O)[nH]c2=O)c(=O)[nH]c1=O | – | – | – | – | – | > 100 | – | > 100 | – | > 100 | – | > 100 | – | – | – | > 100 | – | > 100 | – | > 100 |
| COC1OCC(OS(=O)(=O)c2ccc(C)cc2)C(OC(=O)c2ccccc2)C1OC(=O)c1ccccc1 (stereo not given) | 3.64 | > 100 | 3.11 | > 100 | > 100 | > 100 | – | – | 4.14 | > 100 | 3.63 | > 100 | 7.02 | > 100 | 5.3 | > 100 | 21.7 | > 100 | 3.16 | > 100 |
| CC1(C)Cc2cccc(OCC(O)CN3CCN(c4ccc(F)cc4)CC3)c2O1 (stereo not given) | 12.2 | 45.6 | – | – | – | – | 18.9 | > 50 | 11.1 | 26.9 | 8.83 | 39.9 | 8.58 | 36 | 13.5 | > 50 | 23.2 | > 50 | 16.6 | > 50 |
| O=C(CCc1nnc(-c2c(Cl)cccc2Cl)o1)c1nc2ccccc2[nH]1 | 5.47 | > 100 | 3.34 | 60 | 6.52 | 32.3 | 6.22 | 56.9 | 2.66 | 7.08 | 5.98 | 42.9 | 2.68 | 42.6 | 5.13 | 48.6 | 4.6 | 30.5 | – | – |
